Tested on: plasma
Assay: Measurement of activated partial thromboplastin time (APTT)
Conditions: test substance concentration of 100 μg/ml, rat plasma
Method: Hundred μl of plasma obtained by centrifuging at 1000×g for 10 minutes blood sampled from descending aorta of a rat with 1/10 volume of 3.2% […] and 100 μl of a different concentration of N-desulfated-N-reacetylated heparin or each 6-O-sulfated-N-acetylheparosan (Fraction I derived from Reaction-A, Fraction II derived from Reaction-A, and Reaction-B Product) were placed in a cup for measurement and the whole was kept at 37° C. for 1 minute. Thereafter, 100 μl of Actin (trade name: Mitsubishi Pharma Corporation) kept at 37° C. beforehand was added thereto, followed by maintenance at the temperature for 2 minutes. Then, 100 μl of a 0.02M calcium chloride solution kept at 37° C. was added and a time required for the occurrence of coagulation from this point was measured by means of an automatic blood coagulation-measuring apparatus (KC-10A; manufactured by Amelung).

N-desulfated-N-reacetylated heparin [reference compound]
APTT: ≥ 80 s
